Positions of bridges follow the written chain, without caps; N, C: chain ends. Non-standard residues stand in square brackets, D forms with d. Residues, ends and D or L forms follow the SMILES beside them.
Columns and labels:
intact rats = test: Natriuretic and diuretic effects in intact rats (bolus injection); type: in vivo, rat
Procedure: Synthetic ANVP compounds […] hANVP(127-151) were also found to be natriuretic in the intact rat. These compounds were administered as a bolus injection to Inactin anesthetized rats (100 mg/kg, average weight 399 g) which were maintained on a constant infusion of normal saline at 2.2 ml/hr. […] Data are expressed as mean±SE.

[1] = system: precontracted rabbit or rat aortic preparations; test: Vasorelaxant potency on precontracted aortic rings; conditions: for vasorelaxant potency in words: precontracted vascular preparations; for IC50: thoracic aortic segments precontracted with histamine or norepinephrine, read-out: IC50 (concentration producing half-maximal relaxation of the precontracted tissue)
Procedure: Synthetic ANVP compounds were compared to partially purified (gel filtration step) and purified (HPLC) native ANVP compounds (See FIGS. 3A-D) for their ability to relax histamine-contracted aortic rings. Rings were suspended in 10 ml aerated Kreb's buffer under 1.5 gm passive tension. Rings were precontracted with 5 X 10^-6 M histamine, washed and allowed to return to baseline tension, as described ([…]., supra). Increasing amounts of purified or synthetic ANVP compounds were then added in cumulative fashion. […] The relaxation effects of various ANVP compounds on precontracted rabbit or rat aortic preparations are shown in Table III. | Thoracic aortic segments were precontracted with histamine or | norepinephrine as previously described. Various doses of ANVP compounds | were then added and relaxation of the precontracted state was monitored. | Data are expressed as the concentration of each peptide required to | produce a halfmaximal relaxation of the precontracted tissue (IC50).

Structure (SMILES) | Peak Na+ Excr. (intact rats; dose 3670 pmol/kg) [µmol/min] | Peak Urine Vol. (intact rats; dose 3670 pmol/kg) [µL/min] | vasorelaxant potency in words [1] | IC50 [1] [nM] | diuresis and natriuresis in intact rats, in words (intact rats; Table VII doses) | Peak Na+ Excr. (intact rats; dose 367 pmol/kg) [µmol/min] | Peak Urine Vol. (intact rats; dose 367 pmol/kg) [µL/min]
CC[C@H](C)[C@@H]1NC(=O)[C@H](CCCNC(=N)N)NC(=O)[C@H](CC(=O)O)NC(=O)[C@H]([C@@H](C)CC)NC(=O)[C@H](CCCNC(=N)N)NC(=O)CNC(=O)[C@@H](C)NC(=O)[C@H](Cc2ccccc2)NC(=O)[C@@H](NC(=O)[C@H](CO)NC(=O)[C@H](CO)NC(=O)[C@@H](N)CCCNC(=N)N)CSSC[C@@H](C(=O)N[C@@H](CC(N)=O)C(=O)N[C@@H](CO)C(=O)N[C@@H](Cc2ccccc2)C(=O)N[C@@H](CCCNC(=N)N)C(=O)N[C@@H](Cc2ccc(O)cc2)C(=O)O)NC(=O)CNC(=O)[C@H](CC(C)C)NC(=O)[C@@H](C)NC(=O)[C@H](CO)NC(=O)[C@H](CCC(N)=O)NC(=O)[C@H](C)NC(=O)CNC1=O [[D-Ala^131][D-Ala^142]rANVP(126-150), H-Arg-Ser-Ser-Cys-Phe-[D-Ala]Gly-Arg-Ile-Asp-Arg-Ile-Gly-Ala-Gln-Ser-[D-Ala]-Leu-Gly-Cys-Asn-Ser-Phe-Arg-Tyr-OH] (H-RSSCF[dA]GRIDRIGAQS[dA]LGCNSFRY-OH; disulfide 4-20) | 140 ± 8 | 30 ± 7 | – | – | – | – | –
CC[C@H](C)[C@@H]1NC(=O)[C@H](CCCNC(=N)N)NC(=O)[C@H](CC(=O)O)NC(=O)[C@H]([C@@H](C)CC)NC(=O)[C@H](CCCNC(=N)N)NC(=O)CNC(=O)[C@@H](C)NC(=O)[C@H](Cc2ccccc2)NC(=O)[C@@H](NC(=O)[C@H](CO)NC(=O)[C@H](CO)NC(=O)[C@@H](N)CCCNC(=N)N)CSSC[C@@H](C(=O)N[C@@H](CC(N)=O)C(=O)N[C@@H](CO)C(=O)N[C@@H](Cc2ccccc2)C(=O)N[C@@H](CCCNC(=N)N)C(=O)N[C@@H](Cc2ccc(O)cc2)C(=O)O)NC(=O)CNC(=O)[C@H](CC(C)C)NC(=O)CNC(=O)[C@H](CO)NC(=O)[C@H](CCC(N)=O)NC(=O)[C@H](C)NC(=O)CNC1=O [[D-Ala^131]rANVP(126-150), H-Arg-Ser-Ser-Cys-Phe-[D-Ala]-Gly-Arg-Ile-Asp-Arg-Ile-Gly-Ala-Gln-Ser-Gly-Leu-Gly-Cys-Asn-Ser-Phe-Arg-Tyr-OH] | – | – | most potent | 0.9 | – | – | –
CC[C@H](C)[C@@H]1NC(=O)[C@H](CCCNC(=N)N)NC(=O)[C@H](CC(=O)O)NC(=O)[C@H]([C@@H](C)CC)NC(=O)[C@H](CCCNC(=N)N)NC(=O)[C@@H](C)NC(=O)CNC(=O)[C@H](Cc2ccccc2)NC(=O)[C@@H](NC(=O)[C@H](CO)NC(=O)[C@H](CO)NC(=O)[C@@H](N)CCCNC(=N)N)CSSC[C@@H](C(=O)N[C@@H](CC(N)=O)C(=O)N[C@@H](CO)C(=O)N[C@@H](Cc2ccccc2)C(=O)N[C@@H](CCCNC(=N)N)C(=O)N[C@@H](Cc2ccc(O)cc2)C(=O)O)NC(=O)CNC(=O)[C@H](CC(C)C)NC(=O)CNC(=O)[C@H](CO)NC(=O)[C@H](CCC(N)=O)NC(=O)[C@H](C)NC(=O)CNC1=O [[D-Ala^132]rANVP(126-150), H-Arg-Ser-Ser-Cys-Phe-Gly-[D-Ala]-Arg-Ile-Asp-Arg-Ile-Gly-Ala-Gln-Ser-Gly-Leu-Gly-Cys-Asn-Ser-Phe-Arg-Tyr-OH] | 20 ± 5 | 89 | – | – | – | – | –
CC[C@H](C)[C@@H]1NC(=O)[C@H](CCCNC(=N)N)NC(=O)[C@H](CC(=O)O)NC(=O)[C@@H](C(C)C)NC(=O)[C@H](CCCNC(=N)N)NC(=O)CNC(=O)CNC(=O)[C@H](Cc2ccccc2)NC(=O)[C@@H](NC(=O)[C@H](CO)NC(=O)[C@H](CO)NC(=O)[C@@H](N)CCCNC(=N)N)CSSC[C@@H](C(=O)N[C@@H](CC(N)=O)C(=O)N[C@@H](CO)C(=O)N[C@@H](Cc2ccccc2)C(=O)N[C@@H](CCCNC(=N)N)C(=O)N[C@@H](Cc2ccc(O)cc2)C(=O)O)NC(=O)CNC(=O)[C@H](CC(C)C)NC(=O)CNC(=O)[C@H](CO)NC(=O)[C@H](CCC(N)=O)NC(=O)[C@H](C)NC(=O)CNC1=O [[D-Val^134]rANVP(126-150), H-Arg-Ser-Ser-Cys-Phe-Gly-Arg-[D-Val]-Asp-Arg-Ile-Gly-Ala-Gln-Ser-Gly-Leu-Gly-Cys-Asn-Ser-Phe-Arg-Tyr-OH] | – | – | – | 13 | – | – | –
CC[C@H](C)[C@@H]1NC(=O)[C@H](CCCNC(=N)N)NC(=O)CNC(=O)CNC(=O)[C@H](Cc2ccccc2)NC(=O)[C@@H](NC(=O)[C@H](CO)NC(=O)[C@H](CO)NC(=O)[C@@H](N)CCCNC(=N)N)CSSC[C@@H](C(=O)N[C@@H](CC(N)=O)C(=O)N[C@@H](CO)C(=O)N[C@@H](Cc2ccccc2)C(=O)N[C@@H](CCCNC(=N)N)C(=O)N[C@@H](Cc2ccc(O)cc2)C(=O)O)NC(=O)CNC(=O)[C@H](CC(C)C)NC(=O)CNC(=O)[C@H](CO)NC(=O)[C@H](CCC(N)=O)NC(=O)[C@H](C)NC(=O)CNC(=O)[C@@H](C(C)C)NC(=O)[C@H](CCCNC(=N)N)NC(=O)[C@H](CC(=O)O)NC1=O [[D-Val^137]rANVP(126-150), H-Arg-Ser-Ser-Cys-Phe-Gly-Gly-Arg-Ile-Asp-Arg-[D-Val]-Gly-Ala-Gln-Ser-Gly-Leu-Gly-Cys-Asn-Ser-Phe-Arg-Tyr-OH] | 0.54 ± 0.3 | 9.5 ± 5 | – | 40 | exceptions | – | –
CC[C@H](C)[C@@H]1NC(=O)[C@H](CCCNC(=N)N)NC(=O)[C@H](CC(=O)O)NC(=O)[C@H]([C@@H](C)CC)NC(=O)[C@H](CCCNC(=N)N)NC(=O)[C@@H]2CCCN2C(=O)CNC(=O)[C@H](Cc2ccccc2)NC(=O)[C@@H](NC(=O)[C@H](CO)NC(=O)[C@H](CO)NC(=O)[C@@H](N)CCCNC(=N)N)CSSC[C@@H](C(=O)N[C@@H](CC(N)=O)C(=O)N[C@@H](CO)C(=O)N[C@@H](Cc2ccccc2)C(=O)N[C@@H](CCCNC(=N)N)C(=O)N[C@@H](Cc2ccc(O)cc2)C(=O)O)NC(=O)CNC(=O)[C@H](CC(C)C)NC(=O)CNC(=O)[C@H](CO)NC(=O)[C@H](CCC(N)=O)NC(=O)[C@H](C)NC(=O)CNC1=O [[Pro^132]rANVP(126-150), H-Arg-Ser-Ser-Cys-Phe-Gly-Pro-Arg-Ile-Asp-Arg-Ile-Gly-Ala-GLn-Ser-Gly-Leu-Gly-Cys-Asn-Ser-Phe-Arg-Tyr-OH] | 56 ± 20 | 10.5 ± 2 | – | 3.25 | – | – | –
CC[C@H](C)[C@@H]1NC(=O)[C@H](CCCNC(=N)N)NC(=O)[C@H](CC(=O)O)NC(=O)[C@H]([C@@H](C)CC)NC(=O)[C@H](CCCNC(=N)N)NC(=O)CNC(=O)CNC(=O)[C@H](Cc2ccccc2)NC(=O)[C@@H](NC(=O)[C@H](CO)NC(=O)[C@H](CO)NC(=O)[C@@H](N)CCCNC(=N)N)CSSC[C@@H](C(=O)N[C@@H](CC(N)=O)C(=O)N[C@@H](CO)C(=O)N[C@@H](Cc2ccccc2)C(=O)N[C@@H](CCCNC(=N)N)C(=O)N[C@@H](Cc2ccc(O)cc2)C(N)=O)NC(=O)CNC(=O)[C@H](CC(C)C)NC(=O)CNC(=O)[C@H](CO)NC(=O)[C@H](CCC(N)=O)NC(=O)[C@H](C)NC(=O)CNC1=O [rANVP(126-150)-NH2, H-Arg-Ser-Ser-Cys-Phe-Gly-Gly-Arg-Ile-Asp-Arg-Ile-Gly-Ala-Gln-Ser-Glyn-Leu- Gly-Cys-Asn-Ser-Phe-Arg-Tyr-NH2] | – | – | most potent | 0.8 | – | 57 | 11.2 ± 1.6
